Measured values from patent publication US7713935B2, “Compounds that modulate TRH actions” (The Provost, Fellows and Scholars of The College of The …, priority 2004, dated 2010).
Read-outs that look alike come from different tables or passages of the source. Square brackets hold non-standard residues; d marks the D form. Peptide text beside a SMILES is read from it. * marks the point of attachment. AMC = Cc1cc(=O)oc2cc(N*)ccc12; pGlu = O=C1CC[C@@H](C(=O)O)N1

Tests used:
[1] = molecular target: native rat cortical TRH receptors; assay: TRH receptor binding: displacement of [3H][3-Me-His2]TRH from rat cortical membranes; conditions: for Affinity for [3H]-3MeHis-TRH-labelled receptors in rat brain cortex: result in words; for Affinity for [3H]-3MeHis-TRH-labelled receptors compared with 3MeHis-TRH: rat brain cortex
Method: It cannot be ruled out, however, that [^3H][3-Me-His^2]TRH is binding to a TRH receptor subtype in rat brain cortex that has yet to be identified.
Radioligand binding assays were carried out to examine the ability of these TRH-DE inhibitors to bind to TRH receptors. This was achieved by measuring the ability of the inhibitors to displace [^3H][3-Me-His^2]TRH binding to rat cortical membranes. Membranes were prepared from the cortex of male Wistar rats. The binding of [^3H]-3MeHis-TRH to TRH receptors in cortical membranes was measured as described previously (Kelly et al., 2002) using 10 mM TRH to define non-specific binding. The affinity of TRH-DE inhibitors for TRH receptors was determined in competition experiments and data were analyzed using GraphPad Prism. […] The rank order of potency of D isomer inhibitors was JAK4-D>JAK2-D>JAK1-D.

[2] = molecular target: T1, TRH-DE purified from porcine brain (Sus scrofa, UniProt A0A287AP33); assay: Inhibition of purified TRH-DE (kinetic/fluorometric assays); format: biochemical; conditions: read-out: Ki values for TRH-DE inhibitors
T1 construct: TRH-DE purified from porcine brain; from tissue; host or cells: porcine brain
Description: The binding capacity offered by in the vicinity of the S2′ binding site of TRH-DE was studied. […] The L-amino acids in these peptides were replaced with D-amino acids. The vast majority of naturally occurring polypeptides are composed of L-amino acids and mammalian proteolytic enzymes are designed to work with this stereochemistry. Thus, replacement of L-amino acids by D-amino acids is used in the art in an endeavor to confer stability to proteolytic degradation as described in U.S. Pat. No. 6,703,366. It is recognized by the art that this type of replacement, however, may lead to loss of peptide specificity and or activity as noted by U.S. Pat. No. 4,587,233, Sato et al. 1987 and Fischer 2003, and thus the effect of the replacement is unpredictable. […] Replacement of L-amino acids by D-amino acids may also be used to scan the relative importance of the stereochemistry of particular functional groups in a peptide structure and also that of local structures within the peptide (Hruby, 2002).
The ability of compounds to be hydrolysed by and to inhibit TRH-DE purified from porcine brain was determined using kinetic assays as previously described (Kelly et al. 1999, 2000a, 2000b, U.S. Pat. application 20030166944). […] [JAK 1, JAK 2, JAK 3, JAK 4 and JAK 5 are described in U.S. Pat. App. No. 20030166944.]
HPLC analysis was used, as previously described (Kelly et al. 2000a, U.S. Pat. App. 20030166944), to assess the ability of each compound listed above to act as a TRH-DE substrate. […] Compounds were then screened for their ability to inhibit TRH-DE purified from porcine brain using fluorometric assays, as previously described (Kelly et al. 2000a, U.S. Pat. App. 20030166944).

Male Wistar rats [3] = assay: Antagonism of barbiturate-induced sleep time (analeptic effect); format: in vivo, rat; conditions: 1 mg/kg i.v.; for Effect on barbiturate-induced sleep time: result in words; for Sleep time: 10 min after sodium pentobarbitone 30 mg/kg i.p., mean ± SEM
Method: The antagonism of barbiturate-induced anesthesia is a well-recognized pharmacological effect of TRH and is used in the art to indicate successful central delivery and activity of TRH analogues. […] Male Wistar rats (150-250 g) were anaesthetized with sodium pentobarbitone (30 mg/kg i.p.). […] Animals were placed on their backs and sleep times recorded. From Table III it can be seen that both […] [table]

[4] = molecular target: native rat cortical TRH receptors; conditions: cited from earlier work; for Affinity compared to TRH for [3H]-3MeHis-TRH-labelled receptors in rat cortical membranes: previous studies (Kelly et al., 2002)
Male Wistar rats [5] = assay: Rat behaviour total activity score; format: in vivo
Method: These include, increased locomotor activity (21-22), induction of blinking and forepaw licking and body shaking behavior, often referred to as 'wet dog shakes' (WDS) Kelly et al., 2000b). […] Male Wistar rats (150-250 g) were placed in individual perspex boxes and allowed to acclimatize for 20 min. […] Individual behaviors were recorded for 30 sec at 5 min intervals by an observer who was blind to treatment. Behaviors during each observation period were summed to yield a total activity score.

Male Wistar rats [6] = assay: Wet dog shaking (WDS) behavior; format: in vivo, rat
Male Wistar rats [7] = conditions: Kelly et al., 2000b; cited from earlier work
[8] = L isomer, JAK compounds dissolved in DMSO, read-out: Ki, inhibition of [3H]-3MeHis-TRH binding, X is L isomer aa
[9] = D isomer, JAK compounds dissolved in DMSO, read-out: Ki, inhibition of [3H]-3MeHis-TRH binding, X is D isomer aa

T1 sequence (A0A287AP33 1-1066): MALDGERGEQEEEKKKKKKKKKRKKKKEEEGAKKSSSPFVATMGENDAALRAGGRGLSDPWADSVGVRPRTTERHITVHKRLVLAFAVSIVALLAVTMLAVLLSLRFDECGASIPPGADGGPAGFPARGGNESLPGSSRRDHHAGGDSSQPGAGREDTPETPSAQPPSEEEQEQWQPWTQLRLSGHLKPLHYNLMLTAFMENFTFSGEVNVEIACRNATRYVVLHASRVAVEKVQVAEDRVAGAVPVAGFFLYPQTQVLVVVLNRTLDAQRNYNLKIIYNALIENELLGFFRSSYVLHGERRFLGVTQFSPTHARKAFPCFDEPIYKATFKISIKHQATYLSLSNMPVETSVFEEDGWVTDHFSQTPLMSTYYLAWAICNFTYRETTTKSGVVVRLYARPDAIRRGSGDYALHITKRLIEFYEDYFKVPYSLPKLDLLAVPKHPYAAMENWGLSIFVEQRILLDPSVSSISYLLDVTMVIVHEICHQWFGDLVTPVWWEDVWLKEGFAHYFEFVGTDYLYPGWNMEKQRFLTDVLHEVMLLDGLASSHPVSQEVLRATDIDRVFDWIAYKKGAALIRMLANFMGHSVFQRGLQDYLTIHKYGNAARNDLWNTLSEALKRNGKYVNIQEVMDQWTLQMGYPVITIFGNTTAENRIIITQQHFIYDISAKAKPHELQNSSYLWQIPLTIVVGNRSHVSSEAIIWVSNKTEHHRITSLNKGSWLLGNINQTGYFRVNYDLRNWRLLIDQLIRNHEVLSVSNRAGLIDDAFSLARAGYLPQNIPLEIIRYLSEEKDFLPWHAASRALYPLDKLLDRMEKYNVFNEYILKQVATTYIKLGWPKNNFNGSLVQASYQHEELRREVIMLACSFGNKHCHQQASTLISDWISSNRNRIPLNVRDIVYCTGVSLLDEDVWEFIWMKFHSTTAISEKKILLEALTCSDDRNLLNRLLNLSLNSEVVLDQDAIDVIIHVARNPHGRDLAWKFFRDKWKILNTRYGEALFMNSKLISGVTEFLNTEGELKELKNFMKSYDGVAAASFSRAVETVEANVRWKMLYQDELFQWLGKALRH

Compound: Cn1cncc1C[C@H](NC(=O)[C@@H]1CCC(=O)N1)C(=O)N1CCC[C@H]1C(N)=O [3-MeHis-TRH, reference compound]
- Ki ([1]; in DMSO, read-out: Ki, inhibition of [3H]-3MeHis-TRH binding): 74 nM
- Ki ([1]; in saline, read-out: Ki, inhibition of [3H]-3MeHis-TRH binding): 1.9 nM

Compound: Cc1cc(=O)oc2cc(NC(=O)[C@H](Cc3c[nH]c4ccccc34)NC(=O)[C@H](Cc3c[nH]c4ccccc34)NC(=O)[C@H](Cc3ccc(O)cc3)NC(=O)[C@@H]3CCCN3C(=O)[C@H](CC(N)=O)NC(=O)[C@@H]3CCC(=O)N3)ccc12 [JAK 1, Glp-Asn-Pro-LTyr-LTrp-LTrp-AMC] ([pGlu]NPYWW-{AMC})
- Ki [1, 8]: > 100000 nM
- Affinity for [3H]-3MeHis-TRH-labelled receptors in rat brain cortex [1]: low affinity
- Ki [2]: 1 nM

Compound: Cc1cc(=O)oc2cc(NC(=O)[C@H](Cc3c[nH]c4ccccc34)NC(=O)[C@H](Cc3ccc(O)cc3)NC(=O)[C@@H]3CCCN3C(=O)[C@H](CC(N)=O)NC(=O)[C@@H]3CCC(=O)N3)ccc12 [JAK 2, Glp-Asn-Pro-LTyr-LTrp-AMC] ([pGlu]NPYW-{AMC})
- Ki [1, 8]: ~40000 nM
- Affinity for [3H]-3MeHis-TRH-labelled receptors in rat brain cortex [1]: low affinity

Compound: Cc1cc(=O)oc2cc(NC(=O)[C@@H](Cc3c[nH]c4ccccc34)NC(=O)[C@@H](Cc3ccc(O)cc3)NC(=O)[C@@H]3CCCN3C(=O)[C@H](CC(N)=O)NC(=O)[C@@H]3CCC(=O)N3)ccc12 [JAK 2D, Glp-Asn-Pro-DTyr-DTrpAMC] ([pGlu]NP[dY][dW]-{AMC})
- Ki [1, 9]: 3.7 nM
- Affinity for [3H]-3MeHis-TRH-labelled receptors compared with 3MeHis-TRH [1]: greater affinity
- Ki [2]: 100 nM

Compound: [pGlu]NP[dY][dW]-NH2
- Effect on barbiturate-induced sleep time (Male Wistar rats [3]): significantly (p<0.05, Student's t-test) reduce

Compound: [^3H][3-Me-His^2]TRH [reference compound]
- Kd ([4]; single population of high affinity sites (Sharif 1989, Kelly et al., 2002), read-out: Kd on rat brain cortical membranes): ~5 nM

Compound: NC(=O)C[C@H](NC(=O)[C@@H]1CCC(=O)N1)C(=O)N1CCC[C@H]1C(N)=O [JAK 6, Glp-Asn-ProNH2] ([pGlu]-Asn-Pro-NH2)
- Affinity compared to TRH for [3H]-3MeHis-TRH-labelled receptors in rat cortical membranes [4]: relatively low affinity
- Ki [2]: 16100 nM

Compound: NC(=O)C[C@H](NC(=O)[C@@H]1CCC(=O)N1)C(=O)N1CCC[C@H]1C(=O)N[C@H](Cc1ccc(O)cc1)C(=O)N[C@H](Cc1c[nH]c2ccccc12)C(N)=O [JAK 4D, Glp-Asn-Pro-D-Tyr-D-TrpNH2] ([pGlu]NP[dY][dW]-NH2)
- Responses on co-administration with 10 mg/kg TRH (Male Wistar rats [5]; 0.1 mg/kg): equivalent to those achieved by 20 and 50 mg/kg TRH
- Effect of pre-treatment on stimulatory effect of 10 mg/kg TRH (Male Wistar rats [5]; 0.1 mg/kg, 15-20 min after TRH): enhanced
- Activity response compared with TRH (Male Wistar rats [5]; 1 mg/kg JAK4-D): comparable to that produced by TRH 5 mg/kg
- Effect of pre-treatment on responses to 10 mg/kg TRH (Male Wistar rats [5]; 1 mg/kg, entire observation period): enhanced and prolonged
- Effect on spontaneous rat activity scores vs vehicle (Male Wistar rats [5]; 0.1-5 mg/kg i.p.): transient increase
- Sleep time (Male Wistar rats [3]): 54.1 ± 2.4 min
- Ki [1, 9]: 5.5 nM
- Affinity for [3H]-3MeHis-TRH-labelled receptors compared with 3MeHis-TRH [1]: greater affinity
- Ki [2]: 110 nM
- Effect of pre-treatment on peak WDS response to 10 mg/kg TRH (Male Wistar rats [6]; 1 mg/kg): enhanced
- Occurrence of WDS (Male Wistar rats [6]; 1 mg/kg): comparable with the response produced by 5 mg/kg TRH

Compound: NC(=O)[C@@H](Cc1c[nH]c2ccccc12)NC(=O)[C@@H](Cc1ccc(O)cc1)NC(=O)[C@@H]1CCCN1C(=O)[C@H](Cc1c[nH]cn1)NC(=O)[C@@H]1CCC(=O)N1 [JAK 7D, Glp-His-Pro-D-Tyr-D-TrpNH2] ([pGlu]HP[dY][dW]-NH2)
- Ki [1, 9]: 1000 nM
- Ki [2]: 19600 nM

Compound: NC(=O)C[C@H](NC(=O)[C@@H]1CCC(=O)N1)C(=O)N1CCC[C@H]1C(=O)N[C@@H](Cc1ccc(O)cc1)C(=O)N[C@@H](Cc1c[nH]c2ccccc12)C(=O)N[C@@H](Cc1c[nH]c2ccccc12)C(N)=O [JAK 3, Glp-Asn-Pro-LTyr-LTrp-LTrpNH2] ([pGlu]NPYWW-NH2)
- Ki [2]: 730 nM

Compound: NC(=O)[C@@H]1CCCN1C(=O)[C@H](Cc1c[nH]cn1)NC(=O)[C@@H]1CCC(=O)N1 [TRH, pyroglutamyl-histidyl-prolineamide, reference compound]
- Effect on rat activity (Male Wistar rats [5]; TRH 5-50 mg/kg): dose-dependent increase
- Sleep time (Male Wistar rats [3]): 54.5 ± 4.3 min
- Effect on barbiturate-induced sleep time (Male Wistar rats [3]): significantly (p<0.05, Student's t-test) reduce
- Ki [1, 8]: 22 nM
- Effect on WDS (Male Wistar rats [6]; TRH i.p.): concentration-dependent increase
- Persistence of effects on WDS (Male Wistar rats [6]; TRH i.p.): approximately 20 min
- Time of maximum numbers of WDS post administration (Male Wistar rats [6]; TRH i.p.): 5 min

Compound: Cc1cc(=O)oc2cc(NC(=O)[C@@H](Cc3c[nH]c4ccccc34)NC(=O)[C@@H](Cc3c[nH]c4ccccc34)NC(=O)[C@@H](Cc3ccc(O)cc3)NC(=O)[C@@H]3CCCN3C(=O)[C@H](CC(N)=O)NC(=O)[C@@H]3CCC(=O)N3)ccc12 [JAK 1D, Glp-Asn-Pro-DTyr-DTrp-DTrpAMC] ([pGlu]NP[dY][dW][dW]-{AMC})
- Ki [1, 9]: 60 nM
- Ki [2]: 30 nM

Compound: NC(=O)C[C@H](NC(=O)[C@@H]1CCC(=O)N1)C(=O)N1CCC[C@H]1C(=O)N[C@@H](Cc1ccc(O)cc1)C(=O)N[C@@H](Cc1c[nH]c2ccccc12)C(N)=O [JAK 4, Glp-Asn-Pro-LTyr-LTrp-NH2] ([pGlu]NPYW-NH2)
- Ki [1, 8]: 120 nM

Compound: Cc1cc(=O)oc2cc(NC(=O)[C@@H]3CCCN3C(=O)[C@H](CC(N)=O)NC(=O)[C@@H]3CCC(=O)N3)ccc12 [JAK 5, Glp-Asn-Pro-AMC] ([pGlu]-Asn-Pro-{AMC})
- Affinity compared to TRH for [3H]-3MeHis-TRH-labelled receptors in rat cortical membranes [4]: relatively low affinity
- Effect on central effects of TRH in vivo (Male Wistar rats [7]): amplify
- Ki [2]: 970 nM
